Consider 21 compounds from patent US11066414B2, “Cot modulators and methods of use thereof” (Gilead Sciences, Inc., priority 2015, dated 2021).

For experiment [1], the system named is TNFα. As to the kind of experiment: Cot Monocyte TNFα Cell Based Assay.
The target of experiment [2] is Human Cot (Homo sapiens (Human), UniProt P41279). Briefly: High Throughput Cot Biochemical Assay. As to conditions: Cot HTRF (TR-FRET) biochemical assay. On the technique in general: In TR-FRET formats the signal depends on donor and acceptor labels being close together.
Human Cot, sequence (P41279 30-397): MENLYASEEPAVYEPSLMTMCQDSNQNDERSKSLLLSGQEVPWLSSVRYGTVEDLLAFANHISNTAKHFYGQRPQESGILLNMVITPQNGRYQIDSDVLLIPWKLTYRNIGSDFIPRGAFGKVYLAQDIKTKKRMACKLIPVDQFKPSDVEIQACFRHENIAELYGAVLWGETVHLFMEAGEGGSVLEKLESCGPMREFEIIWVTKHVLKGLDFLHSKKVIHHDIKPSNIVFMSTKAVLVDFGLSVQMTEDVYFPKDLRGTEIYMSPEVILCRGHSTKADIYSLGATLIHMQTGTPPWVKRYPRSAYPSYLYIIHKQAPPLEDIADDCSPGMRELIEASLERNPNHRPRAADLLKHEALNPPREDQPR
Setting [3] is: Homo sapiens, Monocyte, read-out: EC50 TNF, LPS-stimulated human monocytes, TNFα.

Read-outs that look alike come from different tables or passages of the source.

As to `CC(C)(C)CNc1c(C#N)cnc2c(Cl)cc(N[C@H](c3cn(C4(C(F)(F)F)CC4)nn3)c3cccc4nccnc34)cc12` [Example 734, (S)-8-chloro-4-(neopentylamino)-6-((quinoxalin-5-yl(1-(1-(trifluoromethyl)-cyclopropyl)-1H-1,2,3-triazol-4-yl)methyl)amino)quinoline-3-carbonitrile], the EC50 (in general, the midpoint of the concentration-response curve) in experiment [1] (setting [3]) turned out to be 313 nM. Further, the half-maximal inhibitory concentration (IC50) – broadly, the point on the concentration scale where inhibition reaches its midpoint – in experiment [2] (IC50 HTRF) is 41 nM.
As to `Cn1ccc2c([C@H](Nc3cc(Cl)c4ncc(C#N)c(NCC(C)(C)C)c4c3)c3cn(C45CC(C4)C5)nn3)cccc21` [Example 735, (S)-6-(((1-(bicyclo[1.1.1]pentan-1-yl)-1H-1,2,3-triazol-4-yl)(1-methyl-1H-indol-4-yl)methyl)amino)-8-chloro-4-(neopentylamino)quinoline-3-carbonitrile], the concentration giving a half-maximal response (EC50) in experiment [1] (setting [3]) was determined as 478 nM. The IC50 in experiment [2] (IC50 HTRF) is 47 nM.
On the same counts, the results for `Cn1ccc2c([C@H](Nc3cc(Cl)c4ncc(C#N)c(NCC(C)(C)C)c4c3)c3cn(C4(C(F)F)CC4)nn3)cccc21` [Example 736, (S)-8-chloro-6-(((1-(1-(difluoromethyl)cyclopropyl)-1H-1,2,3-triazol-4-yl)(1-methyl-1H-indol-4-yl)methyl)amino)-4-(neopentylamino)quinoline-3-carbonitrile] are 645 nM and 117 nM.
On to `CN1Cc2c(cccc2[C@H](Nc2cc(Cl)c3ncc(C#N)c(NCC(C)(C)C)c3c2)c2cn(C3(C(F)F)CC3)nn2)C1=O` [Example 737, (S)-8-chloro-6-(((1-(1-(difluoromethyl)cyclopropyl)-1H-1,2,3-triazol-4-yl)(2-methyl-1-oxoisoindolin-4-yl)methyl)amino)-4-(neopentylamino)quinoline-3-carbonitrile], for which, in experiment [1] (setting [3]), the EC50 turned out to be 91 nM. Further, the half-maximal inhibitory concentration (IC50) in experiment [2] (IC50 HTRF) stood at 3 nM.
Regarding `CC(C)(C)CNc1c(C#N)cnc2c(Cl)cc(N[C@H](c3cn(C4CC4)nn3)c3csc4cnccc34)cc12` [Example 738, (S)-8-chloro-6-(((1-cyclopropyl-1H-1,2,3-triazol-4-yl)(thieno[2,3-c]pyridin-3-yl)methyl)amino)-4-(neopentylamino)quinoline-3-carbonitrile], the EC50 in experiment [1] (setting [3]) worked out at 40 nM. Further, in experiment [2] (IC50 HTRF), the half-maximal inhibitory concentration (IC50) stood at 2 nM.
Turning to `Cc1nc(F)ccc1[C@H](Nc1cc(Cl)c2ncc(C#N)c(NCC34CC(C3)C4)c2c1)c1cn(C2(C(F)F)CC2)nn1` [Example 739, (S)-4-((bicyclo[1.1.1]pentan-1-ylmethyl)amino)-8-chloro-6-(((1-(1-(difluoromethyl)cyclopropyl)-1H-1,2,3-triazol-4-yl)(6-fluoro-2-methylpyridin-3-yl)methyl)amino)quinoline-3-carbonitrile], the EC50 in experiment [1] (setting [3]) was 254 nM. Moreover, it took 21 nM to reach half-maximal inhibition in experiment [2] (IC50 HTRF) (IC50).
On to `Cc1nc(F)ccc1[C@H](Nc1cc(Cl)c2ncc(C#N)c(NCC34CC(C3)C4)c2c1)c1cn(C2(C(F)(F)F)CC2)nn1` [Example 740, (S)-4-((bicyclo[1.1.1]pentan-1-ylmethyl)amino)-8-chloro-6-(((6-fluoro-2-methylpyridin-3-yl)(1-(1-(trifluoromethyl)cyclopropyl)-1H-1,2,3-triazol-4-yl)methyl)amino)quinoline-3-carbonitrile], for which the concentration for a half-maximal effect (EC50) in experiment [1] (setting [3]) was 311 nM. The same compound yielded a half-maximal inhibitory concentration (IC50) in experiment [2] (IC50 HTRF) of 45 nM.
Regarding `CC(C)(C)CNc1c(C#N)cnc2c(Cl)cc(N[C@H](c3cn(C4(C(F)(F)F)CC4)nn3)c3csc4cnccc34)cc12` [Example 741, (S)-8-chloro-4-(neopentylamino)-6-((thieno[2,3-c]pyridin-3-yl(1-(1-(trifluoromethyl)cyclopropyl)-1H-1,2,3-triazol-4-yl)methyl)amino)quinoline-3-carbonitrile], the concentration for a half-maximal effect (EC50) in experiment [1] (setting [3]) stood at 120 nM. In experiment [2] (IC50 HTRF), this compound had a half-inhibitory concentration (IC50) of 6 nM.
On the same counts, the results for `Cc1nc(F)ccc1[C@H](Nc1cc(Cl)c2ncc(C#N)c(Nc3cnc(F)c(F)c3)c2c1)c1cn(C2(C(F)F)CC2)nn1` [Example 742, (S)-8-chloro-6-(((1-(1-(difluoromethyl)cyclopropyl)-1H-1,2,3-triazol-4-yl)(6-fluoro-2-methylpyridin-3-yl)methyl)amino)-4-((5,6-difluoropyridin-3-yl)amino)quinoline-3-carbonitrile] are 199 nM and 17 nM.
In the same order, the values of `CC(C)(C)CNc1c(C#N)cnc2c(Cl)cc(N[C@H](c3cn(C4(C(F)F)CC4)nn3)c3cccc4c(=O)n(CC(F)F)ccc34)cc12` [Example 743, (S)-8-chloro-6-(((2-(2,2-difluoroethyl)-1-oxo-1,2-dihydroisoquinolin-5-yl)(1-(1-(difluoromethyl)cyclopropyl)-1H-1,2,3-triazol-4-yl)methyl)amino)-4-(neopentylamino)quinoline-3-carbonitrile] are 116 nM and 5 nM.
In the same order, the values of `Cn1ccc2c([C@H](Nc3cc(Cl)c4ncc(C#N)c(NCC(C)(C)C)c4c3)c3cn(C4(C(F)F)CC4)nn3)cccc2c1=O` [Example 744, (S)-8-chloro-6-(((1-(1-(difluoromethyl)cyclopropyl)-1H-1,2,3-triazol-4-yl)(2-methyl-1-oxo-1,2-dihydroisoquinolin-5-yl)methyl)amino)-4-(neopentylamino)quinoline-3-carbonitrile] are 33 nM and 3 nM.
As for `Cn1ccc2c([C@H](Nc3cc(Cl)c4ncc(C#N)c(NCC(C)(C)C)c4c3)c3cn(C4CC4)nn3)cccc2c1=O` [Example 745, (S)-8-chloro-6-(((1-cyclopropyl-1H-1,2,3-triazol-4-yl)(2-methyl-1-oxo-1,2-dihydroisoquinolin-5-yl)methyl)amino)-4-(neopentylamino)quinoline-3-carbonitrile], the EC50 in experiment [1] (setting [3]) stood at 28 nM. The compound further gave an IC50 in experiment [2] (IC50 HTRF) of 2 nM.
For `Cn1ccc2c([C@H](Nc3cc(Cl)c4ncc(C#N)c(NCC(C)(C)C)c4c3)c3cn(C(C)(C)C)nn3)cccc2c1=O` [Example 747, (S)-6-(((1-(tert-butyl)-1H-1,2,3-triazol-4-yl)(2-methyl-1-oxo-1,2-dihydroisoquinolin-5-yl)methyl)amino)-8-chloro-4-(neopentylamino)quinoline-3-carbonitrile], the EC50 in experiment [1] (setting [3]) came to 36 nM. In experiment [2] (IC50 HTRF), this compound displayed a 50% inhibitory concentration (IC50) of 4 nM.
`CCC(F)(F)Cn1cc([C@@H](Nc2cc(Cl)c3ncc(C#N)c(NCC(C)(C)C)c3c2)c2ccc(F)nc2C)nn1` [Example 750, (S)-8-chloro-6-(((1-(2,2-ifluorobutyl)-1H-1,2,3-triazol-4-yl)(6-fluoro-2-methylpyridin-3-yl)methyl)amino)-4-(neopentylamino)quinoline-3-carbonitrile]: the EC50 in experiment [1] (read-out: EC50 TNF, LPS-stimulated human monocytes, TNFα) was 194 nM. In experiment [2] (read-out: IC50 HTRF), the half-inhibitory concentration (IC50) was 11 nM.
Consider `Cc1nc(F)ccc1[C@H](Nc1cc(Cl)c2ncc(C#N)c(NCC(C)(C)C)c2c1)c1cn(CC2(C(F)F)CC2)nn1` [Example 752, (S)-8-chloro-6-(((1-((1-(difluoromethyl)cyclopropyl)-methyl)-1H-1,2,3-triazol-4-yl)(6-fluoro-2-methylpyridin-3-yl)methyl)amino)-4-(neopentylamino)quinoline-3-carbonitrile], for which, in experiment [1] (setting [3]), the EC50 is 57 nM. For the same compound, in experiment [2] (IC50 HTRF), the IC50 was found to be 5 nM.
With `CCC1(n2cc([C@@H](Nc3cc(Cl)c4ncc(C#N)c(NCC(C)(C)C)c4c3)c3ccc(F)nc3C)nn2)CC1` [Example 754, (S)-8-chloro-6-(((1-(1-ethylcyclopropyl)-1H-1,2,3-triazol-4-yl)(6-fluoro-2-methylpyridin-3-yl)methyl)amino)-4-(neopentylamino)quinoline-3-carbonitrile], in experiment [1] (setting [3]), the EC50 amounted to 31 nM. In experiment [2] (IC50 HTRF), this compound came in with an IC50 of 3 nM.
For `CCC1(n2cc([C@@H](Nc3cc(Cl)c4ncc(C#N)c(NCC(C)(C)C)c4c3)c3cccc4c(=O)n(C)ccc34)nn2)CC1` [Example 756, (S)-8-chloro-6-(((1-(1-ethylcyclopropyl)-1H-1,2,3-triazol-4-yl)(2-methyl-1-oxo-1,2-dihydroisoquinolin-5-yl)methyl)amino)-4-(neopentylamino)quinoline-3-carbonitrile], the EC50 in experiment [1] (setting [3]) came out at 26 nM. In addition, the IC50 in experiment [2] (IC50 HTRF) is 3 nM.
`Cc1nc(F)ccc1[C@H](Nc1cc(Cl)c2ncc(C#N)c(NCC(C)(C)C)c2c1)c1cn(C2(C(C)C)CC2)nn1` [Example 757, (S)-8-chloro-6-(((6-fluoro-2-methylpyridin-3-yl)(1-(1-isopropylcyclopropyl)-1H-1,2,3-triazol-4-yl)methyl)amino)-4-(neopentylamino)quinoline-3-carbonitrile]: the EC50 in experiment [1] (setting [3]) is 60 nM. The compound further gave an IC50 in experiment [2] (IC50 HTRF) of 5 nM.
Regarding `Cc1nc(F)ccc1[C@H](Nc1cc(Cl)c2ncc(C#N)c(NCC(C)(C)C)c2c1)c1cn(C(C)(C)C2CC2)nn1` [Example 758, (S)-8-chloro-6-(((1-(2-cyclopropylpropan-2-yl)-1H-1,2,3-triazol-4-yl)(6-fluoro-2-methylpyridin-3-yl)methyl)amino)-4-(neopentylamino)quinoline-3-carbonitrile], in experiment [1] (setting [3]), the EC50 is 50 nM. This compound also returned a half-maximal inhibitory concentration (IC50) in experiment [2] (IC50 HTRF) of 4 nM.
For the compound `Cc1nc(F)ccc1[C@H](Nc1cc(Cl)c2ncc(C#N)c(NCC(C)(C)C)c2c1)c1cn(C2(C)COC2)nn1` [Example 759, (S)-8-chloro-6-(((6-fluoro-2-methylpyridin-3-yl)(1-(3-methyloxetan-3-yl)-1H-1,2,3-triazol-4-yl)methyl)amino)-4-(neopentylamino)quinoline-3-carbonitrile], the concentration giving a half-maximal response (EC50) in experiment [1] (setting [3]) was determined as 42 nM. In experiment [2] (IC50 HTRF), this compound returned an IC50 of 2 nM.
Consider `Cn1ccc2c([C@H](Nc3cc(Cl)c4ncc(C#N)c(NCC(C)(C)C)c4c3)c3cn(C4(C)COC4)nn3)cccc2c1=O` [Example 760, (S)-8-chloro-6-(((2-methyl-1-oxo-1,2-dihydroisoquinolin-5-yl)(1-(3-methyloxetan-3-yl)-1H-1,2,3-triazol-4-yl)methyl)amino)-4-(neopentylamino)quinoline-3-carbonitrile], for which the EC50 in experiment [1] (setting [3]) was found to be 58 nM. Besides, the 50% inhibitory concentration (IC50) in experiment [2] (IC50 HTRF) amounted to 2 nM.
